How the values were obtained:
[1] = tested on: HBV (HepG2.117 cell line, inducibly HBV producing); assay: Anti-HBV activity, intracellular HBV DNA by real-time PCR in HepG2.117 cell line; format: cell-based, hepatitis B virus; conditions: HepG2.117 cells, 3 days of treatment
Method: The anti HBV activity was measured using the HepG2.117 cell line, a stable, inducibly HBV producing cell line, which replicates HBV in the absence of doxycycline (Tet-off system). The HepG2 cell line is available from ATCCR under number HB-8065. Transfection of the HepG2 cell line can be as described in Sun and Nassal 2006 Journal of Hepatology 45 (2006) 636-645 “Stable HepG2- and Huh7-based human hepatoma cell lines for efficient regulated expression of infectious hepatitis B virus”.
For the antiviral assay, HBV replication was induced, followed by a treatment with serially diluted compound in 96-well plates. After 3 days of treatment, the antiviral activity was determined by quantification of intracellular HBV DNA using real-time PCR and an HBV specific primer set and probe.

[2] = Cytotoxicity, ATPlite Luminescence Assay; format: cell-based, human; conditions: human, HepG2 or HepG2.117 cells, 3-days incubation unless marked with *
Method: Cytotoxicity of the compounds was tested using HepG2 or HepG2.117 cells, incubated for 3 or 4 days in the presence of compounds. The viability of the cells was assessed using the PERKIN ELMER ATPlite Luminescence Assay System.”

[3] = Human liver microsome stability; format: in vitro ADME; conditions: 1 μM compound, NADPH 1 mM, 37° C., 0-60 min; for half-life at 1 μM: human, pooled human liver microsomes, pH 7.4, pooled human liver microsomes 0.5 mg/mL, read-out: HLM Metabolism t1/2; for HLM Metabolism t1/2: pooled human liver microsomes 0.5 mg/mL
Method: Human Liver Microsome Stability t½ (Min) of Compounds of Formula (I) […] All incubations are performed singularly for each compound. NADPH was added to initiate the reaction with the final concentration of 1 mM and the final incubation volume of 400 μL. At 6 time points (0, 5, 10, 20, 40 and 60 min) reactions were stopped by the removal of 50 μL of the incubation mixture into plates containing acetonitrile at a of 1:3 (v:v). The plates were centrifuged at 3000 rpm for 10 min at 4° C. to precipitate the protein. Following protein precipitation, the sample supernatants were combined in cassettes of up to 8 compounds. The internal standard was added (1:1 supernatant to internal standard solution) and samples were analyzed using standard LC-MS conditions. From a plot of ln peak area ratio (compound peak area/internal standard peak area) against time, the gradient of the line is determined. Subsequently, half-life is calculated using the equations below: Elimination rate constant (k)=(−gradient) […]

[4] = Hepatitis B virus, HepG2.117, 72 h

| SMILES | EC50 [1, 4] | CC50 at 3 days [2] | half-life at 1 μM [3] | EC50 [1] | HLM Metabolism t1/2 [3] |
| --- | --- | --- | --- | --- | --- |
| C[C@@H]1Cc2nn3c(c2CN1C(=O)c1ccc(Cl)c(Cl)c1)C(=O)N([C@H](C)c1ccc([S@@](C)(=N)=O)cc1)C[C@H]3C (relative stereo) [Compound 18B, (3R,7R)-2-(3,4-dichlorobenzoyl)-3,7-dimethyl-9-((R*)-1-(4-((S*)—S-methylsulfonimidoyl)phenyl)ethyl)-1,2,3,4,8,9-hexahydropyrido[4′,3′:3,4]pyrazolo[1,5-a]pyrazin-10(7H)-one] | 0.031 µM | > 50 µM | > 3 h |  |  |
| CC(c1cnc(NC2CC2)nc1)N1C[C@@H](C)n2nc3c(c2C1=O)CN(C(=O)c1ccc(Cl)c(Cl)c1)[C@H](C)C3 (single isomer, unassigned) [Compound 37A, (3R,7R)-9-((R*)-1-(2-(cyclopropylamino)pyrimidin-5-yl)ethyl)-2-(3,4-dichlorobenzoyl)-3,7-dimethyl-1,2,3,4,8,9-hexahydropyrido[4′,3′:3,4]pyrazolo[1,5-a]pyrazin-10(7H)-one] |  | > 50 µM |  | 0.15 µM | >3 h |
| CC(c1cc(F)c(=O)n(C2CC2)c1)N1C[C@@H](C)n2nc3c(c2C1=O)CN(C(=O)c1ccc(Cl)c(Cl)c1)[C@H](C)C3 (single isomer, unassigned) [Compound 46A, (3R,7R)-9-((R*)-1-(1-cyclopropyl-5-fluoro-6-oxo-1,6-dihydropyridin-3-yl)ethyl)-2-(3,4-dichlorobenzoyl)-3,7-dimethyl-1,2,3,4,8,9-hexahydropyrido[4′,3′:3,4]pyrazolo[1,5-a]pyrazin-10(7H)-one] |  | > 50 µM | > 3 h | 0.31 µM |  |
| CC(c1ccc(C(C)(C)O)nc1)N1C[C@@H](C)n2nc3c(c2C1=O)CN(C(=O)c1cc(Cl)c(Cl)cn1)[C@H](C)C3 (single isomer, unassigned) [Compound 57A, (3R,7R)-2-(4,5-dichloropicolinoyl)-9-((R*)-1-(6-(2-hydroxypropan-2-yl)pyridin-3-yl)ethyl)-3,7-dimethyl-1,2,3,4,8,9-hexahydropyrido[4′,3′:3,4]pyrazolo[1,5-a]pyrazin-10(7H)-one] |  | > 50 µM | > 3 h | > 2.5 µM |  |
| CC(c1ccn(C(C)C)c(=O)c1)N1C[C@@H](C)n2nc3c(c2C1=O)CN(C(=O)c1ccc(Cl)c(C(F)(F)F)c1)[C@H](C)C3 (single isomer, unassigned) [Compound 47A, (3R,7R)-2-(4-chloro-3-(trifluoromethyl)benzoyl)-9-((R*)-1-(1-isopropyl-2-oxo-1,2-dihydropyridin-4-yl)ethyl)-3,7-dimethyl-1,2,3,4,8,9-hexahydropyrido[4′,3′:3,4]pyrazolo[1,5-a]pyrazin-10(7H)-one] |  | > 50 µM |  | 0.068 µM | 0.888 h |
| Cc1ncc(C(C)N2C[C@@H](C)n3nc4c(c3C2=O)CN(C(=O)c2ccc(Cl)c(Cl)c2)[C@H](C)C4)cn1 (single isomer, unassigned) [Compound 4A, (3R,7R)-2-(3,4-dichlorobenzoyl)-3,7-dimethyl-9-((R*)-1-(2-methylpyrimidin-5-yl)ethyl)-1,2,3,4,8,9-hexahydropyrido[4′,3′:3,4]pyrazolo[1,5-a]pyrazin-10(7H)-one] |  | > 50 µM | > 3 h | 0.28 µM |  |
| CC(c1cc(F)c(=O)n(C)c1)N1C[C@@H](C)n2nc3c(c2C1=O)CN(C(=O)c1ccc(Cl)c(Cl)c1)[C@H](C)C3 (single isomer, unassigned) [Compound 45B, (3R,7R)-2-(3,4-dichlorobenzoyl)-9-((S*)-1-(5-fluoro-1-methyl-6-oxo-1,6-dihydropyridin-3-yl)ethyl)-3,7-dimethyl-1,2,3,4,8,9-hexahydropyrido[4′,3′:3,4]pyrazolo [1,5-a]pyrazin-10(7H)-one] | 0.027 µM | > 50 µM | > 3 h |  |  |
| CC(c1cc(F)ccn1)N1C[C@@H](C)n2nc3c(c2C1=O)CN(C(=O)c1ccc(Cl)c(Cl)c1)[C@H](C)C3 (single isomer, unassigned) [Compound 32A] |  | > 50 µM | 1.68 h | 0.016 µM |  |
| CC(c1cnc(C(F)(F)F)cn1)N1C[C@@H](C)n2nc3c(c2C1=O)CN(C(=O)c1ccc(Cl)c(C#N)c1)[C@H](C)C3 (single isomer, unassigned) [Compound 10B, 2-Chloro-5-((3R,7R)-3,7-dimethyl-10-oxo-9-((S*)-1-(5-(trifluoromethyl)pyrazin-2-yl)ethyl)-1,2,3,4,7,8,9,10-octahydropyrido[4′,3′:3,4]pyrazolo[1,5-a]pyrazine-2-carbonyl)benzonitrile] | 0.087 µM | > 50 µM | > 3 h |  |  |
| C[C@@H]1Cc2nn3c(c2CN1C(=O)c1ccc(Cl)c(C(F)(F)F)c1)C(=O)N([C@@H](C)c1ccc([S@@](C)(=N)=O)cc1)C[C@H]3C (relative stereo) [Compound 19D, (3R,7R)-2-(4-chloro-3-(trifluoromethyl)benzoyl)-3,7-dimethyl-9-((S*)-1-(4-((S*)—S-methylsulfonimidoyl)phenyl)ethyl)-1,2,3,4,8,9-hexahydropyrido[4′,3′:3,4]pyrazolo[1,5-a]pyrazin-10(7H)-one] | 0.011 µM | > 50 µM | > 3 h |  |  |
| CC(c1ccc(S(N)(=O)=O)cc1)N1C[C@@H](C)n2nc3c(c2C1=O)CN(C(=O)c1ccc(Cl)c(Cl)c1)[C@H](C)C3 (single isomer, unassigned) [Compound 16A, 4-((R*)-1-((3R,7R)-2-(3,4-dichlorobenzoyl)-3,7-dimethyl-10-oxo-1,2,3,4,7,8-hexahydropyrido[4′,3′:3,4]pyrazolo[1,5-a]pyrazin-9(10H)-yl)ethyl)benzenesulfonamide] | 0.061 µM | > 50 µM | > 3 h |  |  |
| CC(C)Oc1cc(C(C)N2C[C@@H](C)n3nc4c(c3C2=O)CN(C(=O)c2ccc(Cl)c(C(F)(F)F)c2)[C@H](C)C4)ccn1 (single isomer, unassigned) [Compound 48A, (3R,7R)-2-(4-chloro-3-(trifluoromethyl)benzoyl)-9-((R*)-1-(2-isopropoxypyridin-4-yl)ethyl)-3,7-dimethyl-1,2,3,4,8,9-hexahydropyrido[4′,3′:3,4]pyrazolo [1,5-a]pyrazin-10(7H)-one] | 0.052 µM | 22.1 µM | 2.22 h |  |  |
| C[C@@H]1Cc2nn3c(c2CN1C(=O)c1ccc(Cl)c(Cl)c1)C(=O)N([C@@H](C)c1ccc([S@@](C)(=N)=O)cc1)C[C@H]3C (relative stereo) [Compound 18D, (3R,7R)-2-(3,4-dichlorobenzoyl)-3,7-dimethyl-9-((S*)-1-(4-((S*)—S-methylsulfonimidoyl)phenyl)ethyl)-1,2,3,4,8,9-hexahydropyrido[4′,3′:3,4]pyrazolo[1,5-a]pyrazin-10(7H)-one] | 0.024 µM | > 50 µM | > 3 h |  |  |
| CC(c1ccccn1)N1C[C@@H](C)n2nc3c(c2C1=O)CN(C(=O)c1ccc(Cl)c(Cl)c1)[C@H](C)C3 (single isomer, unassigned) [Compound 65A, (3R,7R)-2-(3,4-dichlorobenzoyl)-3,7-dimethyl-9-((R*)-1-(pyridin-2-yl)ethyl)-1,2,3,4,8,9-hexahydropyrido[4′,3′:3,4]pyrazolo[1,5-a]pyrazin-10(7H)-one] | 0.034 µM | > 50 µM | 2.53 h |  |  |
| CC(c1cnc(N2CCOC[C@@H]2C)nc1)N1C[C@@H](C)n2nc3c(c2C1=O)CN(C(=O)c1ccc(Cl)c(C(F)(F)F)c1)[C@H](C)C3 (single isomer, unassigned) [Compound 38A, (3R,7R)-2-(4-chloro-3-(trifluoromethyl)benzoyl)-3,7-dimethyl-9-((R*)-1-(2-((S)-3-methylmorpholino)pyrimidin-5-yl)ethyl)-1,2,3,4,8,9-hexahydropyrido[4′,3′:3,4]pyrazolo[1,5-a]pyrazin-10(7H)-one] |  | 47 µM | 1.01 h | 0.06 µM |  |
| C[C@@H]1Cc2nn3c(c2CN1C(=O)c1ccc(Cl)c(C#N)c1)C(=O)N([C@H](C)c1ccc(OC(F)F)cc1)CC3 [Ref 1, reference compound] | 0.095 µM | > 12.5 µM | 0.583 h |  |  |

— patent US20240287070A1, “FUSED HETEROCYCLIC DERIVATIVES” (Janssen Sciences Ireland Unlimited Company, priority 2021, published 2024)
